The results in this text go back to PMC9841533, “Microtubule-Stabilizing 1,2,4-Triazolo[1,5-a]pyrimidines as Candidate Therapeutics for Neurodegenerative Disease: Matched Molecular Pair Analyses and Computational Studies Reveal New Structure–Activity Insights” (Journal of Medicinal Chemistry, 2022).

In this assay the test system is acetylated α-tubulin (AcTub) levels in QBI293 cells. The assay is described as follows: QBI293 cell assay of MT stabilization: acetylated α-tubulin ELISA. The format is cell-based. In a few lines:
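AcTub and α-Tub were quantified by ELISA in whole-cell extracts normalized by BCA protein and expressed relative to vehicle. AcTub changes were also scaled to a 100 nM reference stabilizer control.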

Like-named read-outs stand apart in the source and are kept apart here.

In the case of `C[C@@H](Nc1c(-c2c(F)cc(C#CCCO)cc2F)c(Cl)nc2ncnn12)C(C)(C)C` [Compound 53, (R)-4-(4-(5-Chloro-7-((3,3-dimethylbutan-2-yl)amino)-[1,2,4]triazolo[1,5-a]pyrimidin-6-yl)-3,5-difluorophenyl)but-3-yn-1-ol], the “AcTub (1 uM - normalized)” value (1 uM compound, normalized) is listed as 0.57. Further, the “AcTub (10 uM - normalized)” value (10 uM compound, normalized) is reported as 0.81. The fold induction at 1 µM runs as follows: (4 h, 1 uM compound, read-out: AcTub (1uM)) 3.67; (4 h incubation, 1 μM, read-out: AcTub 1 μM, fold-change compared to vehicle (DMSO)-treated cells) 3.67 ± 0.34. In addition, the fold induction at 10 µM runs as follows: (4 h, 10 uM compound, read-out: AcTub (10 uM)) 5.25; (4 h incubation, 10 μM, read-out: AcTub 10 μM, fold-change compared to vehicle (DMSO)-treated cells) 5.25 ± 0.89. Further, the “AcTub 1 μM, fold-change compared to positive control compound 5 (100 nM) (in parentheses)” value (4 h incubation, 1 μM) is recorded as 0.57 fold-change. For the setting “4 h incubation, 10 μM”, the “AcTub 10 μM, fold-change compared to positive control compound 5 (100 nM) (in parentheses)” value came to 0.81 fold-change.
